Experiments:
mouse = settings: intra-peritoneally, Westley 1977; cited from earlier work
[1] = test system: human T lymphoblastoid cells of the CEM line bearing the antigen T-65
[2] = test system: Charles River France mouse; experiment: Acute toxicity of monensin, single intra-peritoneal administration (own experiments); format: in vivo; settings: single administration intra-peritoneally
Procedure: (§1) Thus the acute toxicity of monensin in a single administration intra-peritoneally in the Charles River France mouse is characterised by a 50% lethal dose of 340 micrograms per mouse, namely 17 mg/kg of body weight.

[3] = as above; format: in vivo, mouse; settings: mouse, in vivo, ip; single administration intra-peritoneally; read-out: 50% lethal dose, per body weight
Procedure: as §1

Compound | 50% lethal dose (LD50) (mouse) [mg/kg] | potentiating effect (factor) on the cytotoxicity of immunotoxin anti-T-65 [1] | spontaneous cytotoxicity of the ionophore for the cells employed [1] | 50% lethal dose, per mouse [2] [micrograms per mouse] | LD50 [3] [mg/kg]
CC[C@@H](C(=O)[C@@H](C)[C@@H](O)[C@H](C)CCc1ccc(C)c(O)c1C(=O)O)[C@H]1O[C@](CC)([C@H]2CC[C@](O)(CC)[C@H](C)O2)C[C@@H]1C [Lasalocide, lasalocide] | 64 | ~36000 | not spontaneously cytotoxic | – | –
CC[C@@]1([C@@H]2O[C@@H]([C@H]3O[C@@](O)(CO)[C@H](C)C[C@@H]3C)C[C@@H]2C)CC[C@H]([C@]2(C)CC[C@]3(C[C@H](O)[C@@H](C)[C@@H]([C@@H](C)[C@@H](OC)[C@H](C)C(=O)O)O3)O2)O1 [Monensin, monensin] | 16.8 | ~55000 | not spontaneously cytotoxic | 340 | 17
CO[C@@H]1C[C@@H](C[C@H]2CC[C@H](C)[C@H]([C@@H](C)C(=O)O)O2)O[C@]2(O[C@](C)([C@H]3CC[C@@](C)([C@@H]4O[C@@H]([C@H]5O[C@@](O)(CO)[C@H](C)C[C@@H]5C)C[C@@H]4C)O3)C[C@H]2C)[C@@H]1C [Nigericin, nigericin] | 65 | ~7000 | not spontaneously cytotoxic | – | –

From patent US4767621A (priority 1982, dated 1988)
